Laboratory results: patent publication US20070128217A1 (priority 2003, published 2007)

Tests used:
[1] = tested on: rabbit serum obtained by immunizing a rabbit with the SARS-CoV strain Frankfurt 1; assay type: binding; design: Binding of a rabbit serum to linear peptides / Binding of a rabbit serum to looped peptides / Rabbit serum linear peptides / Rabbit serum looped peptides / Binding of a rabbit serum to linear peptides of protein N of SARS-CoV Urbani (Rabbit serum linear peptides) / Binding of a rabbit serum to looped/cyclic peptides of protein N of SARS-CoV Urbani (Rabbit serum looped peptides): unit not given here
[2] = tested on: antibodies in sera from SARS patients (sera 1a, 1b, 2, 6, 37, 62, London, SARS-yellow, SARS-green); assay type: binding, human; design: Binding of serum 6 to linear peptides of protein X1 of SARS-CoV Urbani / Binding of serum 37 to linear peptides of protein X1 of SARS-CoV Urbani / Binding of serum 6 to looped/cyclic peptide (PEPSCAN-ELISA) / Binding of serum 37 to looped/cyclic peptide (PEPSCAN-ELISA) / Binding of serum 37 to looped/cyclic peptides of protein X1 of SARS-CoV Urbani / Binding of serum 6 to linear peptides of protein X2 / Binding of serum 37 to linear peptides of protein X2 / Binding of serum 37 to looped/cyclic peptides of protein X2 of SARS-CoV Urbani / Binding of serum 6 to linear peptides of protein M of SARS-CoV Urbani / Binding of serum 37 to linear peptides of protein M of SARS-CoV Urbani / Binding of serum 6 to looped/cyclic peptides of protein M of SARS-CoV Urbani / Binding of serum 37 to looped/cyclic peptides of protein M of SARS-CoV Urbani / Binding of serum 6 to linear peptides of protein X3 of SARS-CoV Urbani / Binding of serum 37 to linear peptides of protein X3 of SARS-CoV Urbani / Binding of serum 37 to looped/cyclic peptides of protein X3 of SARS-CoV Urbani / Binding of serum 6 to linear peptides of protein X4 of SARS-CoV Urbani / Binding of serum 37 to linear peptides of protein X4 of SARS-CoV Urbani / Binding of serum 37 to looped/cyclic peptides of protein X4 of SARS-CoV Urbani / Binding of serum 6 to linear peptides of protein X5 of SARS-CoV Urbani / Binding of serum 37 to linear peptides of protein X5 of SARS-CoV Urbani / Binding of serum 37 to looped/cyclic peptides of protein X5 of SARS-CoV Urbani / Binding of serum 6 to linear peptides of protein N of SARS-CoV Urbani / Binding of serum 37 to linear peptides of protein N of SARS-CoV Urbani / Binding of serum 6 to linear peptide (PEPSCAN-ELISA) / Binding of serum 1a to looped/cyclic peptides of protein N of SARS-CoV Urbani / Binding of serum 1b to looped/cyclic peptides of protein N of SARS-CoV Urbani / Binding of serum 2 to looped/cyclic peptides of protein N of SARS-CoV Urbani / Binding of serum 6 to looped/cyclic peptides of protein N of SARS-CoV Urbani / Binding of serum 37 to looped/cyclic peptides of protein N of SARS-CoV Urbani / Binding of serum 62 to looped/cyclic peptides of protein N of SARS-CoV Urbani / Binding of serum London to looped/cyclic peptides of protein N of SARS-CoV Urbani / Binding of serum SARS-green to looped/cyclic peptides of protein N of SARS-CoV Urbani: unit not given here
[3] = tested on: control sera (pooled serum of ten healthy LUMC hospital workers; commercial negative donor pooled serum from the Dutch bloodbank); assay type: binding, human; design: Binding of Control serum LUMC to linear peptides / Binding of Control serum Blood-bank to linear peptides / Binding of Control serum LUMC to looped peptides / Binding of Control Serum Blood-Bank to Looped peptides / Binding of Control serum LUMC to linear peptides of the protein M of SARS-CoV Urbani / Binding of Control serum Blood-bank to linear peptides of the protein M of SARS-CoV Urbani / Binding of Control serum LUMC to looped peptides of the protein M of SARS-CoV Urbani / Binding of Control Serum Blood-Bank to Looped peptides of the protein M of SARS-CoV Urbani: unit not given here

Sequence	Binding of Control Serum Blood-Bank to Looped peptides [3]	Binding of Control serum Blood-bank to linear peptides [3]	Binding of Control serum LUMC to linear peptides [3]	Binding of Control serum LUMC to looped peptides [3]	Binding of a rabbit serum to linear peptides [1]	Binding of a rabbit serum to looped peptides [1]	Binding of serum 1a to linear peptides of protein X1 of SARS-CoV Urbani [2]	Binding of serum 1a to looped/cyclic peptide (PEPSCAN-ELISA) [2]	Binding of serum 1b to linear peptides of protein X1 of SARS-CoV Urbani [2]	Binding of serum 1b to looped/cyclic peptide (PEPSCAN-ELISA) [2]	Binding of serum 2 to linear peptides of protein X1 of SARS-CoV Urbani [2]	Binding of serum 2 to looped/cyclic peptide (PEPSCAN-ELISA) [2]	Binding of serum 6 to linear peptides of protein X1 of SARS-CoV Urbani [2]	Binding of serum 6 to looped/cyclic peptide (PEPSCAN-ELISA) [2]	Binding of serum 37 to linear peptides of protein X1 of SARS-CoV Urbani [2]	Binding of serum 37 to looped/cyclic peptide (PEPSCAN-ELISA) [2]	Binding of serum 62 to linear peptides of protein X1 of SARS-CoV Urbani [2]	Binding of serum 62 to looped/cyclic peptide (PEPSCAN-ELISA) [2]	Binding of serum London to linear peptides of protein X1 of SARS-CoV Urbani [2]	Binding of serum London to looped/cyclic peptide (PEPSCAN-ELISA) [2]	also measured
VQTCTPNVTINCQDP	0.6	0.6	0.5	0.4																	Rabbit serum linear peptides [1]: 0.5; Rabbit serum looped peptides [1]: 0.4; Binding of serum 1a to linear peptides of protein X5 of SARS-CoV Urbani [2]: 0.7; Binding of serum 1a to looped/cyclic peptides of protein X5 of SARS-CoV Urbani [2]: 0.6; Binding of serum 1b to linear peptides of protein X5 of SARS-CoV Urbani [2]: 0.8; Binding of serum 1b to looped/cyclic peptides of protein X5 of SARS-CoV Urbani [2]: 0.5; Binding of serum 2 to linear peptides of protein X5 of SARS-CoV Urbani [2]: 0.7; Binding of serum 2 to looped/cyclic peptides of protein X5 of SARS-CoV Urbani [2]: 0.7; Binding of serum 6 to linear peptides of protein X5 of SARS-CoV Urbani [2]: 0.8; Binding of serum 6 to looped/cyclic peptides of protein X5 of SARS-CoV Urbani [2]: 0.2; Binding of serum 37 to linear peptides of protein X5 of SARS-CoV Urbani [2]: 0.7; Binding of serum 37 to looped/cyclic peptides of protein X5 of SARS-CoV Urbani [2]: 0.6; Binding of serum 62 to linear peptides of protein X5 of SARS-CoV Urbani [2]: 0.8; Binding of serum 62 to looped/cyclic peptides of protein X5 of SARS-CoV Urbani [2]: 0.6; Binding of serum London to linear peptides of protein X5 of SARS-CoV Urbani [2]: 0.8; Binding of serum London to looped/cyclic peptides of protein X5 of SARS-CoV Urbani [2]: 0.3; Binding of serum SARS-green to linear peptides of protein X5 of SARS-CoV Urbani [2]: 0.7; Binding of serum SARS-green to looped/cyclic peptides of protein X5 of SARS-CoV Urbani [2]: 0.3; Binding of serum SARS-yellow to linear peptides of protein X5 of SARS-CoV Urbani [2]: 0.3; Binding of serum SARS-yellow to looped/cyclic peptides of protein X5 of SARS-CoV Urbani [2]: 0.3
HATATIPLQASLPFG	0.7	0.8	0.6	0.7	0.1	0.5	0.9	0.8	0.8	0.6	0.6	0.5	0.6	0.5	0.8	0.6	0.7	0.6	0.3	0.2	Binding of serum SARS-green to linear peptides of protein X1 of SARS-CoV Urbani [2]: 0.2; Binding of serum SARS-green to looped/cyclic peptide (PEPSCAN-ELISA) [2]: 0.4; Binding of serum SARS-yellow to linear peptides of protein X1 of SARS-CoV Urbani [2]: 0.4; Binding of serum SARS-yellow to looped/cyclic peptide (PEPSCAN-ELISA) [2]: 0.4
LFVTIYSHLLLVAAG	0.6	0.5	0.4	0.6	0.1	0.6	0.7	0.5	0.4	0.3	0.6	0.4	0.3	0.2	0.6	0.5	0.5	0.5	0.2	0.2	Binding of serum SARS-green to linear peptides of protein X1 of SARS-CoV Urbani [2]: 0.2; Binding of serum SARS-green to looped/cyclic peptide (PEPSCAN-ELISA) [2]: 0.3; Binding of serum SARS-yellow to linear peptides of protein X1 of SARS-CoV Urbani [2]: 0.5; Binding of serum SARS-yellow to looped/cyclic peptide (PEPSCAN-ELISA) [2]: 0.4
